Data reported in US20060165672A1, “Fatigue reducing agent” (KANEKA CORPORATION, priority 2003, published 2006).
Each block holds one molecule with its values, some of them ahead of it.

Key:
[1] = test system: male SD rats (7 weeks of age); test: Tread mill test in young rats (maximum running time); type: in vivo, rat; settings: for Maximum Running Time, Time prolonged: after minus before administration; for Maximum Running Time, After administration, relative to solvent control (100) / Maximum Running Time, Time prolonged, relative to solvent control (100) / Maximum Running Time, Before administration, relative to solvent control (100): value in parentheses; for Maximum Running Time, After administration: 2 hours after 300 mg/kg oral dose; for Maximum Running Time, Before administration: baseline before 300 mg/kg oral dose
Experimental: (§1) The anti-fatigue effect of reduced coenzyme Q10 (note that it contained about 1% of oxidized coenzyme Q10) was evaluated in male SD rats (7 weeks of age, n=10) using a tread mill. A rat was forced to run at a speed of 10 m/min on the tread mill machine (Type NK-73-4, Natsume Seisakusho Co., Ltd.). Then the speed was increased stepwise by 5 m/min in every 3 min, and the time when the rat could no longer run was measured (the maximum running time). The soybean oil solution of reduced coenzyme Q10 according to the Reference Example 1 (reduced coenzyme Q10/soybean oil solution=20 mg/ml) was prepared as a test substance and orally administered to rats as reduced coenzyme Q10 (note that it contained about 1% of oxidized coenzyme Q10) with a dose of 300 mg/kg. The maximum running times were measured before administration and 2 hours after administration and a prolongation of the maximum running time was calculated. Soybean oil was administered to the control group.
The anti-fatigue effect of oxidized coenzyme Q10 was evaluated in young rats in a manner similar to (Example 3).

[2] = Coenzyme Q level in the muscle after oral administration for 5 days (HPLC); type: in vivo, male SD rats
Experimental: (§2) Reduced coenzyme Q10 obtained in the Reference Example 1 (containing about 1% of oxidized coenzyme Q10) was dissolved in soybean oil solution (reduced coenzyme Q10/soybean oil solution=20 mg/ml) and orally administered to male SD rats (6 weeks of age) at a dose of 100 mg/kg of reduced coenzyme Q10 (containing about 1% of oxidized coenzyme Q10), once a day for 5 days. Five days later, the muscles of the femoral region were collected, and coenzyme Q level in the muscle was measured. The measurement of the coenzyme Q level in the muscle was performed using HPLC. The harvested rat muscle (0.2 g) was homogenized after the addition of coenzyme Q7 (0.003 mg), ethanol (1 ml), distilled water (1 ml) and ferric chloride (0.01%), and then hexane (3 ml) was added. Coenzyme Q10 was extracted from the homogenate after shaking. After repeating this extraction operation twice, the extract was brought to dryness by evaporating hexane out, re-dissolved in 0.25 ml ethanol and injected to HPLC. HPLC condition is as follows; column: YMC-Pack (ODS-A303), detection wavelength: 275 nm, mobile phase: methanol (88%), hexane (12%), flow rate: 1 ml/min. The measurement of the ratio of reduced coenzyme Q10 and oxidized coenzyme Q10 in the muscle was carried out as follows. The harvested rat muscle (0.2 g) was homogenized after the addition of distilled water (0.2 ml) and ethanol (0.8 ml), and the homogenate was extracted by adding hexane (1.2 ml). After evaporating hexane under a stream of nitrogen, the extract was re-dissolved in ethanol (0.2 ml) and injected to HPLC. The condition of the HPLC operation was the same as the above except that the electrochemical detector was used. Soybean oil was administered to the control group.
Similarly oxidized coenzyme Q10 was administered and then the coenzyme Q level in the muscle was measured.

[3] = Level of reduced coenzyme Q in the muscle after oral administration (HPLC, electrochemical detector); type: in vivo, male SD rats; settings: for Intramuscular level of reduced coenzyme Q (in words): after administration
Experimental: as §2
The level of reduced coenzyme Q in the muscle was measured after administration of reduced coenzyme Q10 in a manner similar to (Example 1).
The level of reduced coenzyme Q in the muscle was measured after administration of oxidized coenzyme Q10 in a manner similar to (Comparative Example 1).

[4] = test system: male SD rats (61 to 63 weeks of age); test: Tread mill test in aged rats (maximum running time, crossover); type: in vivo, rat; settings: for Maximum running time of aged rats (in words) / Maximum Running Time, Time prolonged / Maximum Running Time, After administration, relative to solvent control (100): 300 mg/kg oral; for Maximum Running Time, Time prolonged: after minus before administration; for Maximum Running Time, After administration, relative to solvent control (100) / Maximum Running Time, Before administration, relative to solvent control (100): value in parentheses; for Maximum Running Time, After administration: after 300 mg/kg oral dose; for Maximum Running Time, After administration / Maximum Running Time, Before administration: crossover; for Maximum Running Time, Before administration: baseline before 300 mg/kg oral dose
Experimental: as §1
The anti-fatigue effect of reduced coenzyme Q10 (containing about 1% of oxidized coenzyme Q10) was evaluated in male SD rats (61 to 63 weeks of age, n=7) in a manner similar to (Example 3). This experiment was performed using a crossover method. […]

[5] = compared with oxidized coenzyme Q10, Japanese Patent Laid-Open No. 10-109933; cited from earlier work
[6] = femoral muscle, 100 mg/kg orally once a day for 5 days, rats 6 weeks of age
[7] = value in parentheses, control group = 100, 100 mg/kg orally, 5 days
[8] = femoral muscle, 100 mg/kg orally once a day for 5 days
[9] = value in parentheses, control group = 100

Level of Coenzyme Q in Muscle, Q9 [2, 6]: 12.84 ± 2.03 µg/g
Level of Coenzyme Q in Muscle, Total CoQ [2, 6]: 14.18 ± 2.18 µg/g
Level of Coenzyme Q in Muscle, Q9, relative to control group (100) [2, 7]: (133)
Level of Coenzyme Q in Muscle, Total CoQ, relative to control group (100) [2, 7]: (137)
Intramuscular level of reduced coenzyme Q (in words) [3]: decreased
Level of Reduced Coenzyme Q in Muscle, Q9 [3, 8]: 2.34 ± 0.42 µg/g
Level of Reduced Coenzyme Q in Muscle, Total CoQ [3, 8]: 2.45 ± 0.44 µg/g
Level of Reduced Coenzyme Q in Muscle, Q10, relative to control group (100) ([3]; rat, in vivo): (34**)
Level of Reduced Coenzyme Q in Muscle, Q9, relative to control group (100) [3, 9]: (71*)
Level of Reduced Coenzyme Q in Muscle, Total CoQ, relative to control group (100) [3, 9]: (68*)
Compound: COC1=C(OC)C(=O)C(C/C=C(\C)CC/C=C(\C)CC/C=C(\C)CC/C=C(\C)CC/C=C(\C)CC/C=C(\C)CC/C=C(\C)CC/C=C(\C)CC/C=C(\C)CCC=C(C)C)=C(C)C1=O [Oxidized Coenzyme Q10, oxidized coenzyme Q10, reference compound]
Anti-fatigue effect in young rats (in words, compared with reduced coenzyme Q10) ([1]; 300 mg/kg oral): about the same as that of reduced coenzyme Q10
Maximum Running Time, Time prolonged ([1]; 300 mg/kg oral): 190 ± 76 s
Maximum Running Time, After administration, relative to solvent control (100) ([1]; 300 mg/kg oral): (108**)
Maximum Running Time, Time prolonged, relative to solvent control (100) ([1]; 300 mg/kg oral): (339**)
Maximum Running Time, After administration [1]: 1733 ± 107 s
Maximum Running Time, Before administration [1]: 1543 ± 99 s
Maximum Running Time, Before administration, relative to solvent control (100) [1]: (100)
Maximum running time of aged rats (in words) [4]: no prolongation effect
Maximum Running Time, Time prolonged [4]: 14 ± 43 s
Maximum Running Time, After administration, relative to solvent control (100) [4]: (105)
Maximum Running Time, After administration [4]: 875 ± 108 s
Maximum Running Time, Before administration [4]: 861 ± 123 s
Maximum Running Time, Before administration, relative to solvent control (100) [4]: (100)

Compound: COc1c(O)c(C)c(C/C=C(\C)CC/C=C(\C)CC/C=C(\C)CC/C=C(\C)CC/C=C(\C)CC/C=C(\C)CC/C=C(\C)CC/C=C(\C)CC/C=C(\C)CCC=C(C)C)c(O)c1OC [Reduced Coenzyme Q10, reduced coenzyme Q10]
Maximum running time of rats (in words) ([1]; 300 mg/kg oral): significantly prolonged
Maximum Running Time, Time prolonged ([1]; 300 mg/kg oral): 196 ± 127 s
Maximum Running Time, After administration, relative to solvent control (100) ([1]; 300 mg/kg oral): (108*)
Maximum Running Time, Time prolonged, relative to solvent control (100) ([1]; 300 mg/kg oral): (349**)
Maximum Running Time, After administration [1]: 1719 ± 160 s
Maximum Running Time, Before administration [1]: 1523 ± 97 s
Maximum Running Time, Before administration, relative to solvent control (100) [1]: (99)
Endogenous coenzyme Q (in words) ([2]; after administration, endogenous = synthesized in vivo): increase of endogenous coenzyme Q
Level of Coenzyme Q in Muscle, Q9 [2, 6]: 15.82 ± 2.89 µg/g
Level of Coenzyme Q in Muscle, Q10 [2, 6]: 1.57 ± 0.21 µg/g
Level of Coenzyme Q in Muscle, Total CoQ [2, 6]: 17.39 ± 3.09 µg/g
Level of Coenzyme Q in Muscle, Q9, relative to control group (100) [2, 7]: (164*)
Level of Coenzyme Q in Muscle, Q10, relative to control group (100) [2, 7]: (215**)
Level of Coenzyme Q in Muscle, Total CoQ, relative to control group (100) [2, 7]: (168*)
Intramuscular level of reduced coenzyme Q (in words) [3]: increased
Level of Reduced Coenzyme Q in Muscle, Q9 [3, 8]: 5.32 ± 1.07 µg/g
Level of Reduced Coenzyme Q in Muscle, Q10 [3, 8]: 0.39 ± 0.24 µg/g
Level of Reduced Coenzyme Q in Muscle, Total CoQ [3, 8]: 5.71 ± 1.16 µg/g
Level of Reduced Coenzyme Q in Muscle, Q9, relative to control group (100) [3, 9]: (162*)
Level of Reduced Coenzyme Q in Muscle, Q10, relative to control group (100) [3, 9]: (122)
Level of Reduced Coenzyme Q in Muscle, Total CoQ, relative to control group (100) [3, 9]: (159*)
Plasma level of coenzyme Q after oral administration (in words) [5]: raised the plasma level of coenzyme Q more than oral administration of oxidized coenzyme Q10
Maximum running time of aged rats (in words) [4]: significantly prolonged
Maximum Running Time, Time prolonged [4]: 97 ± 28 s
Maximum Running Time, After administration, relative to solvent control (100) [4]: (115)
Maximum Running Time, After administration [4]: 958 ± 52 s
Maximum Running Time, Before administration [4]: 861 ± 123 s
Maximum Running Time, Before administration, relative to solvent control (100) [4]: (100)
